Assay results reported in patent US12024510B2, “Pyrazolopyridine-diamides, their use as insecticide and processes for preparing the same” (PI INDUSTRIES LTD., priority 2017, dated 2024).

How the values were obtained:
Type in all cases: in vivo
Helicoverpa armigera = Helicoverpa armigera diet incorporation method; conditions: third instar larvae, dead and moribund combined, 96 h after release
Procedure, shortened: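 Third-instar larvae, starved, were placed singly on diet pieces containing test dispersion (bead-milled in surfactant, particles under 2 μm, 500 ppm stock then diluted). Trays kept at 25° C. and 70% RH; mortality counted at 96 h, moribund larvae counted with dead.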

Spodoptera litura = Spodoptera litura diet incorporation method; conditions: third instar larvae, dead and moribund combined, 96 h after release
Procedure, shortened: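 Compound milled to <2 μm average particle size in surfactant, dispersed in water (500 ppm stock dispersion), then mixed into semi-synthetic diet at ~50° C. One starved third-instar larva per diet cell, 25° C, 70% RH; percent mortality (dead plus moribund) scored at 96 h.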

Plutella xylostella = assay: whole plant or invertebrate; conditions: foliar, cabbage leaf dip, second instar larvae, dead and moribund combined, 72 h after release
Procedure, shortened: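 Leaf-dip bioassay: second-instar larvae, singly, fed on cabbage leaves dipped 10 s in test dispersion (bead-milled, diluted with 0.01% Triton-X to test concentration) and dried 20 min. Held at 25 °C, 70% RH; % mortality counts dead and moribund at 72 h.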

Measured: mortality at 300 ppm

CNC(=O)c1c(NC(=O)c2cc(N3CC(F)(F)C3)nn2-c2ncccc2Cl)c(C)cc2ccnn12 [Compound 68, 6-(1-(3-chloropyridin-2-yl)-3-(3,3-difluoroazetidin-1-yl)-1H-pyrazole-5-carboxamido)-N,5-dimethylpyrazolo[1,5-a]pyridine-7-carboxamide]
> 70%: all assays above

Cc1cc2ccnn2c(C(=O)NC(C)C)c1NC(=O)c1cc(Oc2cc(C(F)(F)F)nn2C)nn1-c1ncccc1Cl [Compound 71, 6-(1-(3-chloropyridin-2-yl)-3-((1-methyl-3-(trifluoromethyl)-1H-pyrazol-5-yl)oxy)-1H-pyrazole-5-carboxamido)-N-isopropyl-5-methylpyrazolo[1,5-a]pyridine-7-carboxamide]
> 70%: all assays above

Cc1cc2ccnn2c(C(=O)NCC2CC2)c1NC(=O)c1cc(OC2CSC2)nn1-c1ncccc1Cl [Compound 72, 6-(1-(3-chloropyridin-2-yl)-3-(thietan-3-yloxy)-1H-pyrazole-5-carboxamido)-N-(cyclopropylmethyl)-5-methylpyrazolo[1,5-a]pyridine-7-carboxamide]
> 70%: all assays above

CCNC(=O)c1c(NC(=O)c2cc(Br)nn2-c2ncccc2Cl)c(Br)cc2ccnn12 [Compound 76, 5-bromo-6-(3-bromo-1-(3-chloropyridin-2-yl)-1H-pyrazole-5-carboxamido)-N-ethylpyrazolo[1,5-a]pyridine-7-carboxamide]
> 70%: all assays above

CONC(=O)c1c(NC(=O)c2cc(Br)nn2-c2ncccc2Cl)c(Br)cc2ccnn12 [Compound 87, 5-bromo-6-(3-bromo-1-(3-chloropyridin-2-yl)-1H-pyrazole-5-carboxamido)-N-methoxypyrazolo[1,5-a]pyridine-7-carboxamide]
> 70%: all assays above

CC(C)NC(=O)c1c(NC(=O)c2cc(Br)nn2-c2ncccc2Cl)c(Br)cc2ccnn12 [Compound 91, 5-bromo-6-(3-bromo-1-(3-chloropyridin-2-yl)-1H-pyrazole-5-carboxamido)-N-isopropylpyrazolo[1,5-a]pyridine-7-carboxamide]
> 70%: all assays above

CONC(=O)c1c(NC(=O)c2cc(C(F)(F)F)nn2-c2ncccc2Cl)c(C)cc2ccnn12 [Compound 93, 6-(1-(3-chloropyridin-2-yl)-3-(trifluoromethyl)-1H-pyrazole-5-carboxamido)-N-methoxy-5-methylpyrazolo[1,5-a]pyridine-7-carboxamide]
> 70%: all assays above

Cc1cc2ccnn2c(C(=O)NC(C)C2CC2)c1NC(=O)c1cc(Br)nn1-c1ncccc1Cl (stereo not drawn) [Compound 95, 6-(3-bromo-1-(3-chloropyridin-2-yl)-1H-pyrazole-5-carboxamido)-N-(1-cyclopropylethyl)-5-methylpyrazolo[1,5-a]pyridine-7-carboxamide]
> 70%: all assays above

Cc1cc2ccnn2c(C(=O)NCC(F)(F)F)c1NC(=O)c1cc(Br)nn1-c1ncccc1Cl [Compound 96, 6-(3-bromo-1-(3-chloropyridin-2-yl)-1H-pyrazole-5-carboxamido)-5-methyl-N-(2,2,2-trifluoroethyl)pyrazolo[1,5-a]pyridine-7-carboxamide]
> 70%: all assays above

COc1cc(C(=O)Nc2c(C)cc3ccnn3c2C(=O)NC(C)C2CC2)n(-c2ncccc2Cl)n1 (stereo not drawn) [Compound 99, 6-(1-(3-chloropyridin-2-yl)-3-methoxy-1H-pyrazole-5-carboxamido)-N-(1-cyclopropylethyl)-5-methylpyrazolo[1,5-a]pyridine-7-carboxamide]
> 70%: all assays above
